Article PMC5537869, “Role of Zucchini and Its Distinctive Components in the Modulation of Degenerative Processes: Genotoxicity, Anti-Genotoxicity, Cytotoxicity and Apoptotic Effects” (Nutrients, 2017)
Values joined by “and” are separate entries in the source; they are usually repeats but may differ in a detail not shown here. Identical values can stand only once.

How the values were obtained:
[1] = tested on: Drosophila melanogaster transheterozygous larvae; test: Genotoxicity (single treatment), Drosophila wing spot test (SMART); format: in vivo; set-up: key to Mann-Whitney Test: n.s.: non-significant; settings: single treatment; for Mann-Whitney Test: vs negative control
Experimental: (§1) The principles and basic procedures for the Drosophila wing spot test have been described by Graf et al., and in previous works of our group. Two strains of flies carrying wing genetic markers on the left arm of chromosome 3: multiple wing […] used. The transheterozygous larvae were obtained by crossing […] (Third Multiple 3), Bd^S(Beaded […]) virgin females. Hybrid eggs derived from crossing optimally fertile flies were collected over an 8 h period. […] Concurrent negative controls with the solvent alone (water) and positive controls with hydrogen peroxide (120 mM) were also run. Anti-genotoxicity tests were carried out by mixing the mutagen (hydrogen peroxide, 120 mM) with the compounds solution. After emergence, adult flies were collected from the treatment vials and stored in 70% ethanol. The wings of the flies were removed under a stereomicroscope using a pair of entomological tweezers, similar number of males and females-wings were mounted in Faure's solution on microscope slides and inspected, under 400× magnification, for the presence of clones of cells. The mutant clones were classified into three types: […] The appearance of twin spots indicated the recombinogenic activity of the chemotherapeutic agent (Figure 1). The frequencies of spots per fly of treated series were compared with its corresponding negative control series (water) to analyze Somatic Mutation and Recombination Test (SMART) data. For maximum power, statistical analyses were done exclusively for the total number of spots recovered. The non-parametric U test of Mann, Whitney and Wilcoxon was used to avoid weak positive and inconclusive results on SMART and to achieve a well-defined statistical diagnosis whether a given treatment should be regarded as genotoxic or not. The inhibition percentages (IP) were calculated using the total spots per wing with the following formula [16, 36]: IP = ((Genotoxine alone - Genotoxine plus active compound)/Genotoxine alone) × 100

[2] = tested on: SP6.5 cell line; set-up: method as in PMID 24223611; settings: SP6.5 human uveal melanoma cell line; read-out: IC50 (cell viability); cited from earlier work
[3] = tested on: Drosophila melanogaster transheterozygous larvae; test: Anti-genotoxicity (combined treatment with hydrogen peroxide 120 mM), Drosophila wing spot test (SMART); format: in vivo; set-up: key to Mann-Whitney Test: n.s.: non-significant; settings: combined treatment with H2O2 120 mM; for Mann-Whitney Test: vs negative control
Experimental: as §1

[4] = tested on: normal ocular cells (uveal melanocytes, retinal pigment epithelial cells, and scleral fibroblasts); set-up: method as in PMID 24223611; settings: highest level tested 300 μM; cited from earlier work
[5] = tested on: HL60 cells; test: Nucleosomal DNA fragmentation assay; format: cell-based, human; settings: HL60, 5 h, same concentrations as in the cytotoxicity assay, agarose gel
Experimental: The HL60 tumoral cell line was used with the aim of analyse the apoptotic induction. […] A non-treated cells control was included for each experiment. For DNA fragmentation, treated cells were collected, were centrifuged at 4000 rpm for 5 min and washed with PBS. […] The agarose gels were run at 50 V for 90 min in TBE (Tris/Borate/EDTA) buffer and then observed and photographed under UV light. For Annexin V-PI test, Annexin V Apoptosis Detection Kit ([…] Biotech S.L., Cordoba, Spain) was used. Briefly, cells were resuspended in 100 μL of Binding buffer solution 1× and subsequently, 5 μL AnnexinV-FITC (Fluorescein isothiocyanate) and 10 μL propidium iodide were added, and samples were incubated for 10 min at room temperature in darkness, and flow cytometry (Beckman Coulter Inc., Brea, CA, USA) was then used to analyze the rate of apoptosis.

[6] = tested on: C918 cell line; set-up: method as in PMID 24223611; settings: C918 human uveal melanoma cell line; read-out: IC50 (cell viability); cited from earlier work
[7] = tested on: HL60 cells; test: Cytotoxicity assay, trypan blue exclusion; format: cell-based, human; settings: HL60, 72 h, trypan blue exclusion, at the tested concentrations
Experimental: Therefore, all the cells that exclude the dye are viable. Non-viable cells stained purple-violet, whereas viable ones remained unstained. Trypan blue was added to cell cultures at a 1:1 ratio, and 20 μL of cell suspension was loaded into a Neubauer chamber. The cells were counted under an inverted microscope at 100× magnification. […] Curves are expressed as survival percentage with respect to controls growing at 72 h. All data represent the average of at least three independent experiments.

CC1=C(/C=C/C(C)=C/C=C/C(C)=C/C=C/C=C(C)/C=C/C=C(C)/C=C/C2=C(C)C[C@@H](O)CC2(C)C)C(C)(C)C[C@H](O)C1 [Zeaxanthin, zeaxanthin]
Large Spots (>2 Cells) m = 5 ([1]; 0.0001 μM): 0.00 (0) clones per wing
Small Spots (1–2 Cells) m = 2 ([1]; 0.0001 μM): 0.05 (2) clones per wing
Total Spots m = 2 ([1]; 0.0001 μM): 0.05 (2) clones per wing
Twin Spots m = 5 ([1]; 0.0001 μM): 0.00 (0) clones per wing
Mann-Whitney Test ([1]; 0.0001 μM): n.s.
Large Spots (>2 Cells) m = 5 ([1]; 0.105 μM): 0.03 (1) clones per wing
Small Spots (1–2 Cells) m = 2 ([1]; 0.105 μM): 0.10 (4) clones per wing
Total Spots m = 2 ([1]; 0.105 μM): 0.15 clones per wing and 0.15 (6) clones per wing
Twin Spots m = 5 ([1]; 0.105 μM): 0.03 (1) clones per wing
Mann-Whitney Test ([1]; 0.105 μM): n.s.
IC50 [2]: 40.8 µM
Large Spots (>2 Cells) m = 5 ([3]; 0.0001 μM): 0.00 (0) clones per wing
Small Spots (1–2 Cells) m = 2 ([3]; 0.0001 μM): 0.03 (1) clones per wing
Total Spots m = 2 ([3]; 0.0001 μM): 0.05 (2) clones per wing
Twin Spots m = 5 ([3]; 0.0001 μM): 0.03 (1) clones per wing
Mann-Whitney Test ([3]; 0.0001 μM): n.s.
Large Spots (>2 Cells) m = 5 ([3]; 0.105 μM): 0.00 (0) clones per wing
Small Spots (1–2 Cells) m = 2 ([3]; 0.105 μM): 0.07 (2) clones per wing
Total Spots m = 2 ([3]; 0.105 μM): 0.07 (2) clones per wing
Twin Spots m = 5 ([3]; 0.105 μM): 0.00 (0) clones per wing
Mann-Whitney Test ([3]; 0.105 μM): n.s.
effect on viability of normal ocular cells [4]: did not affect the viability
internucleosomal DNA fragmentation ladder pattern [5]: did not show any internucleosomal fragmentation ladder pattern
IC50 [6]: 28.7 µM
cytotoxic effect (tumoral viability) [7]: slight cytotoxic activities
